Test results published in patent publication US20220043347A1, “ACTINIC RAY-SENSITIVE OR RADIATION-SENSITIVE RESIN COMPOSITION, RESIST FILM, PATTERN FORMING METHOD, AND METHOD FOR MANUFACTURING ELECTRONIC DEVICE” (FUJIFILM Corporation, priority 2019, published 2022).

Experiment: Acid dissociation constant (pKa) determined by computation (ACD/Labs Software Package 1; Gaussian 16 DFT where not calculable)
Details: acid generated from photoacid generator B
Excerpt: In the present specification, an acid dissociation constant (pKa) represents a pKa in an aqueous solution, and is specifically a value determined by computation from a value based on a Hammett's substituent constant and database of publicly known literature values, using the following software package 1. Any of the pKa values described in the present specification indicate values determined by computation using the software package.
Software Package 1: Advanced Chemistry Development (ACD/Labs) Software V 8.14 for Solaris (1994-2007 ACD/Labs).
As described above, the pKa in the present specification refers to a value determined by computation from a value based on a Hammett's substituent constant and database of publicly known literature values, using the software package 1, but in a case where the pKa cannot be calculated by the method, a value obtained by Gaussian 16 based on density functional theory (DFT) shall be adopted.
In addition, the pKa in the present specification refers to a “pKa in an aqueous solution” as described above, but in a case where the pKa in an aqueous solution cannot be calculated, a “pKa in a dimethyl sulfoxide (DMSO) solution” shall be adopted.
Furthermore, in the measurement of the acid dissociation constant (pKa) of an acid generated from the photoacid generator B, specifically, the pKa is a value determined by subjecting a compound formed by substituting each cationic moiety in the compounds B-1 to B-29 with […](for example, in a case of the compound B-1, a compound formed by substituting the triphenylsulfonium cation with H^+) to computation from a value based on a Hammett's substituent constant and database of publicly known literature values, using Software Package 1 of ACD/Labs, as described above. In addition, in a case where pKa could not be calculated by the method, a value obtained by Gaussian 16 based on density functional theory (DFT) was adopted.
In the following table, “pKa1” represents an acid dissociation constant of the first stage, “pKa2” represents an acid dissociation constant of the second stage, and “pKa3” represents an acid dissociation constant of the third stage. A smaller value of pKa means a higher acidity. […]

| Structure (SMILES) | Difference between acid dissociation constant a1 and acid dissociation constant a2 |
| --- | --- |
| O=C(O)C(F)(F)C(F)(F)C(F)(F)C(=O)OC12CC3CC(CC(COC(=O)C(F)(F)S(=O)(=O)O)(C3)C1)C2 [Compound B-3] | 2.92 |
| O=C(COC(=O)C(F)(F)S(=O)(=O)O)NC(=O)C(F)(F)F [Compound B-4] | 9.23 |
| CS(=O)(=O)NS(=O)(=O)CCCOC(=O)C(F)(F)S(=O)(=O)O [Compound B-11] | 3.23 |
| CCCCC(CC)C(=O)NS(=O)(=O)C(F)(F)C(F)(F)C(F)(F)S(=O)(=O)NS(=O)(=O)C(F)(F)F (stereo not drawn) [Compound B-12] | 11.4 |
| O=C([O-])CCCOC(=O)C(CS(=O)(=O)[O-])C(F)(F)F.O=S(=O)(c1ccc([S+](c2ccccc2)c2ccccc2)cc1)C1CCCCC1.O=S(=O)(c1ccc([S+](c2ccccc2)c2ccccc2)cc1)C1CCCCC1 [Compound B-14] | 3.63 |
| O=C(NS(=O)(=O)C(F)(F)C(F)(F)C(F)(F)S(=O)(=O)O)c1ccccc1I [Compound B-22] | 2.97 |
| CC1(OC(=O)c2cc(C(=O)NS(=O)(=O)C(F)(F)C(F)(F)C(F)(F)S(=O)(=O)NS(=O)(=O)C(F)(F)F)cc(C(=O)OC3(C)CCCC3)c2)CCCC1 [Compound B-23] | 10.13 |
| Cc1cc([S+](c2ccc(C(F)(F)F)cc2)c2ccc(C(F)(F)F)cc2)cc(C)c1OCC(=O)OC(C)(C)C.Cc1cc([S+](c2ccc(C(F)(F)F)cc2)c2ccc(C(F)(F)F)cc2)cc(C)c1OCC(=O)OC(C)(C)C.Cc1cc([S+](c2ccc(C(F)(F)F)cc2)c2ccc(C(F)(F)F)cc2)cc(C)c1OCC(=O)OC(C)(C)C.O=C([N-]S(=O)(=O)C(F)(F)C(F)(F)C(F)(F)S(=O)(=O)[O-])c1ccc(OS(=O)(=O)C(F)(F)C(F)(F)C(F)(F)S(=O)(=O)[O-])cc1 [Compound B-25] | 2.53 |
| CC(C)(C)OC(=O)c1cc(OS(=O)(=O)C(F)(F)S(=O)(=O)[O-])cc(C(=O)[N-]S(=O)(=O)C(F)(F)S(=O)(=O)[O-])c1.Cc1cc(C)cc([S+](c2cc(C)cc(C)c2)c2cc(C(F)(F)F)cc(C(F)(F)F)c2)c1.Cc1cc(C)cc([S+](c2cc(C)cc(C)c2)c2cc(C(F)(F)F)cc(C(F)(F)F)c2)c1.Cc1cc(C)cc([S+](c2cc(C)cc(C)c2)c2cc(C(F)(F)F)cc(C(F)(F)F)c2)c1 [Compound B-26] | 4.99 |

More lines, now with the values ahead:

| Difference between acid dissociation constant a1 and acid dissociation constant a2 | Structure (SMILES) |
| --- | --- |
| 3.17 | O=C(CC(F)(F)F)[N-]S(=O)(=O)C(F)(F)C(F)(F)C(F)(F)S(=O)(=O)[O-].c1ccc([S+](c2ccccc2)c2ccccc2)cc1.c1ccc([S+](c2ccccc2)c2ccccc2)cc1 [Compound B-1] |
| 9.59 | COc1ccc([S+](c2ccccc2)c2ccccc2)cc1.COc1ccc([S+](c2ccccc2)c2ccccc2)cc1.O=S(=O)([O-])C(F)(F)C(F)(F)C(F)(F)S(=O)(=O)[N-]C1CCCCC1 [Compound B-2] |
| 2.55 | CS(=O)(=O)[N-]C(=O)C(F)(F)C(F)(F)C(F)(F)C(=O)OCC(F)S(=O)(=O)[O-].c1ccc([S+](c2ccccc2)c2ccccc2)cc1.c1ccc([S+](c2ccccc2)c2ccccc2)cc1 (stereo not drawn) [Compound B-5] |
| 4.82 | COc1ccc([S+](c2ccccc2)c2ccccc2)cc1.COc1ccc([S+](c2ccccc2)c2ccccc2)cc1.O=C(OCCCS(=O)(=O)[O-])C(F)(F)S(=O)(=O)[O-] [Compound B-6] |
| 2.79 | CC(C)(C#N)C(=O)[N-]S(=O)(=O)C(F)(F)C(F)(F)C(F)(F)S(=O)(=O)[N-]S(C)(=O)=O.Cc1ccc(-[s+]2c3ccccc3c3ccccc32)cc1.Cc1ccc(-[s+]2c3ccccc3c3ccccc32)cc1 [Compound B-15] |
| 0.74 | CC1(C)C2CCC1(CS(=O)(=O)[N-]S(=O)(=O)C(F)(F)C(F)(F)C(F)(F)S(=O)(=O)[O-])C(=O)C2.Cc1ccc([S+](c2ccccc2)c2ccccc2)cc1.Cc1ccc([S+](c2ccccc2)c2ccccc2)cc1 (stereo not drawn) [Compound B-16] |
